Four compounds from ChEMBL document CHEMBL5356949, “Development of novel thiazolidine-2,4-dione derivatives as PPAR-γ agonists through design, synthesis, computational docking, MD simulation, and comprehensive in vitro and in vivo evaluation” (RSC Med Chem, 2023) can be followed below.

Calls of active or inactive are those of the source. The rule behind the calls is not given here.

The subject of data set [1] is Rattus norvegicus. Put plainly: Effect on serum ALT level in dexamethasone-induced sc dosed Wistar rat model administered once daily for 11 days and fasted for 12 hrs at end of the experimental period by biochemical analysis. The conditions noted are these: time 11.5 day. The format is functional, organism-based.
The test system of data set [2] is Rattus norvegicus. Briefly: Antidiabetic activity against dexamethasone-induced sc dosed Wistar rat model assessed as decrease in serum glucose level administered once daily for 11 days and fasted for 12 hrs at end of the experimental period. It is filed as functional, organism-based. The conditions noted are these: time 11.5 day.
Data set [3] concerns Rattus norvegicus. Put plainly: Antidiabetic activity against dexamethasone-induced sc dosed Wistar rat model assessed as decrease in serum VLDL level administered once daily for 11 days and fasted for 12 hrs at end of the experimental period. The format is functional, organism-based. The note with it: time 11.5 day.
Data set [4] concerns Rattus norvegicus. Put plainly: Hypolipidemic activity against dexamethasone-induced sc dosed Wistar rat model assessed as decrease in serum triglyceride level administered once daily for 11 days and fasted for 12 hrs at end of the experimental period. It is filed as functional, organism-based. The note with it: time 11.5 day.
Data set [5] deals with Rattus norvegicus. Briefly: Hypolipidemic activity against dexamethasone-induced sc dosed Wistar rat model assessed as decrease in serum TG level administered once daily for 11 days and fasted for 12 hrs at end of the experimental period. It is filed as functional, organism-based. The note with it: time 11.5 day.
The subject of data set [6] is Rattus norvegicus. Briefly: Effect on serum AST level in dexamethasone-induced sc dosed Wistar rat model administered once daily for 11 days and fasted for 12 hrs at end of the experimental period by biochemical analysis. The note with it: time 11.5 day. It is filed as functional, organism-based.
For data set [7], the system named is Rattus norvegicus. Briefly: Hypolipidemic activity against dexamethasone-induced sc dosed Wistar rat model assessed as decrease in serum LDL-c level administered once daily for 11 days and fasted for 12 hrs at end of the experimental period. It is filed as functional, organism-based. The note with it: time 11.0 day.
The subject of data set [8] is Rattus norvegicus. Briefly: Antidiabetic activity against dexamethasone-induced sc dosed Wistar rat diabetic model assessed as restoration of histopathological changes administered once daily for 11 days and fasted for 12 hrs at end of the experimental period by hematoxylin and eosin staining based microscopic analysis. The format is functional, organism-based. The conditions noted are these: time 11.5 day.

Data set [9] has as its system C2C12. Put plainly: Antidiabetic activity in mouse C2C12 cells assessed as increase in glucose uptake incubated for 30 mins. The format is functional, cell-based.
In data set [10] the test system is C2C12. Briefly: Cytotoxicity against mouse C2C12 cells assessed as reduction in cell viability at 100 to 200 uM incubated for 24 hrs by MTT assay. The note with it: c2c12, 24 h, dose 100-200 µM. It is filed as toxicity, cell-based.
The subject of data set [11] is Rattus norvegicus. Put plainly: Hypolipidemic activity against dexamethasone-induced sc dosed Wistar rat model assessed as decrease in serum HDL-c level administered once daily for 11 days and fasted for 12 hrs at end of the experimental period. The note with it: time 11.5 day. The format is functional, organism-based.
Data set [12] deals with C2C12. Briefly: Upregulation of PPAR-gamma expression in mouse C2C12 cells at 1 uM by ELISA analysis. It is filed as functional, cell-based.
The subject of data set [13] is Rattus norvegicus. Briefly: Antidiabetic activity against dexamethasone-induced Wistar rat diabetic model assessed as restoration of histopathological changes at 17.5 mg/kg, sc administered once daily for 11 days and fasted for 12 hrs at end of the experimental period by hematoxylin and eosin staining based microscopic analysis. The format is functional, organism-based. The conditions noted are these: time 11.5 day.

Data set [14] relates to Rattus norvegicus. Put plainly: Hypolipidemic activity against dexamethasone-induced Wistar rat model assessed as decrease in serum HDL-c level at 17.5 mg/kg, sc administered once daily for 11 days and fasted for 12 hrs at end of the experimental period. The format is functional, organism-based. The conditions noted are these: time 11.5 day.
For data set [15], the system named is Rattus norvegicus. Briefly: Effect on serum ALT level in dexamethasone-induced Wistar rat model at 17.5 mg/kg, sc administered once daily for 11 days and fasted for 12 hrs at end of the experimental period by biochemical analysis. It is filed as functional, organism-based. The note with it: time 11.5 day.
Data set [16] deals with Rattus norvegicus. Briefly: Antidiabetic activity against dexamethasone-induced Wistar rat model assessed as decrease in serum VLDL level at 17.5 mg/kg, sc administered once daily for 11 days and fasted for 12 hrs at end of the experimental period. It is filed as functional, organism-based. The conditions noted are these: time 11.5 day.
For data set [17], the system named is C2C12. Put plainly: Upregulation of PPAR-gamma expression in mouse C2C12 cells by ELISA analysis. The format is functional, cell-based. The conditions noted are these: dose 6.25-100 µM.
For data set [18], the system named is Rattus norvegicus. Put plainly: Hypolipidemic activity against dexamethasone-induced Wistar rat model assessed as decrease in serum TG level at 17.5 mg/kg, sc administered once daily for 11 days and fasted for 12 hrs at end of the experimental period. The format is functional, organism-based. The conditions noted are these: time 11.5 day.
In data set [19] the test system is Rattus norvegicus. Put plainly: Hypolipidemic activity against dexamethasone-induced Wistar rat model assessed as decrease in serum triglyceride level at 17.5 mg/kg, sc administered once daily for 11 days and fasted for 12 hrs at end of the experimental period. The note with it: time 11.5 day. It is filed as functional, organism-based.
Data set [20] has as its system Rattus norvegicus. Briefly: Hypolipidemic activity against dexamethasone-induced Wistar rat model assessed as decrease in serum LDL-c level at 17.5 mg/kg, sc administered once daily for 11 days and fasted for 12 hrs at end of the experimental period. The format is functional, organism-based. The note with it: time 11.5 day.
For data set [21], the system named is Rattus norvegicus. Briefly: Effect on serum AST level in dexamethasone-induced Wistar rat model at 17.5 mg/kg, sc administered once daily for 11 days and fasted for 12 hrs at end of the experimental period by biochemical analysis. The conditions noted are these: time 11.5 day. The format is functional, organism-based.
Data set [22] relates to Rattus norvegicus. Put plainly: Antidiabetic activity against dexamethasone-induced Wistar rat model assessed as decrease in serum glucose level at 17.5 mg/kg, sc administered once daily for 11 days and fasted for 12 hrs at end of the experimental period. The format is functional, organism-based. The note with it: time 11.5 day.

Regarding `Cc1c(Cl)cccc1NC(=O)CN1C(=O)S/C(=C\c2cccs2)C1=O`, the result with Rattus norvegicus [1], in the data set on Rattus norvegicus [2], with Rattus norvegicus [3], with Rattus norvegicus [4], in the data set with Rattus norvegicus [5] and in the data set on Rattus norvegicus [6] was Active. Besides, the outcome in the data set with Rattus norvegicus [7], in the data set with Rattus norvegicus [8], in the data set with C2C12 [9] and in the data set with Rattus norvegicus [11] was Active. Also, the Activity result with C2C12 [10] is “Non-Toxic”.
Regarding `CCc1ccc(CCOc2ccc(CC3SC(=O)NC3=O)cc2)nc1` (stereo unspecified), the outcome in the data set on C2C12 [12] was Active.
Consider `O=C(CN1C(=O)S/C(=C\c2cccs2)C1=O)Nc1cc(Cl)c(Cl)cc1Cl`, for which the result with Rattus norvegicus [13], in the data set with Rattus norvegicus [14], with Rattus norvegicus [15], in the data set on Rattus norvegicus [16], in the data set on Rattus norvegicus [18] and with C2C12 [9] was Active. The outcome with Rattus norvegicus [19], with Rattus norvegicus [20], in the data set on Rattus norvegicus [21] and in the data set on Rattus norvegicus [22] was Active. The Activity entry with C2C12 [17] was “Dose-Dependent Effect”; in the data set with C2C12 [10], “Non-Toxic”.
Turning to `O=C(CN1C(=O)S/C(=C\c2cccs2)C1=O)Nc1cccc(C(F)(F)F)c1`, the result in the data set on Rattus norvegicus [13], in the data set with Rattus norvegicus [14], in the data set on Rattus norvegicus [15], in the data set on Rattus norvegicus [16], in the data set with Rattus norvegicus [18] and in the data set on C2C12 [9] was Active. Also, the outcome with Rattus norvegicus [19], in the data set on Rattus norvegicus [20], with Rattus norvegicus [21] and with Rattus norvegicus [22] was Active. In addition, the Activity result in the data set with C2C12 [17] is “Dose-Dependent Effect”; in the data set with C2C12 [10] it was “Non-Toxic”.
